{
  "source": "patent US12528805B2",
  "about": "“Solid forms of emetine” (Acer Therapeutics, Inc., priority 2020, dated 2026)",
  "key": {"[1]": {"assay": "Solid form stability on storage (XRPD re-analysis)", "assay_type": "physicochemical", "conditions": "stored at 40° C./75% RH for 22 h", "experimental": "The solids were dried under vacuum at ambient temperature (about 23° C.) for 17 h. The solids on the XRPD plate were stored at 40° C./75% RH for 22 h then re-analyzed. Amorphous and a mixture of Compound I dihydrochloride Form 2 and Form 6 were obtained (Table 7).\nThe solids were isolated by filtration after a total of 27.5 h at 5° C. and washed with 0.6 mL of cold acetone or 3×0.6 mL of cold heptane. The solids were dried under vacuum at ambient temperature (about 23° C.) for 17 h. The solids on the XRPD plate were stored at 40° C./75% RH for 22 h then re-analyzed by XRPD. Results, which are summarized in Table 8, show mixtures of Compound I dihydrochloride Forms 5 and 6, 5, 2 and 1, and 2 were obtained.\n1.0 mL of water was added to approximately 300 mg of Compound I dihydrochloride Form 1. The resulting mixture was magnetically stirred at 50° C. over about 15 min, then stirred at 50° C. for 0.25 h. The solution was polish filtered (0.45 μm PTFE filter) into a 2 mL push-cap vial and then stirred at 50° C. for 0.25 h, prior to cooling to 5° C. at 0.1° C./min. After 62 h at 5° C., the experiment was sub-sampled and the solid was analyzed by XRPD. The material on the XRPD plate was dried under vacuum at 35° C. under a stream of wet nitrogen (20-38% RH) for about 9 h and then re-analyzed by XRPD. The material on the XRPD plate was stored at 25° C./60% RH for 22 h and then re-analyzed by XRPD. After a total of 87 h at 5° C., solids were isolated by centrifugation (0.22 μm nylon filter) and analyzed by XRPD. The solids were air-dried at ambient temperature (about 22° C.) for 24 h.\nSmall-scale crystallization Experiment 7 was sub-sampled prior to ASA and after ASA was complete, with solids isolated by centrifugation (0.22 μm nylon filter) and analyzed by XRPD.\nApproximately 10 g of Compound I dihydrochloride Form 1 was dissolved in 67 mL of ethanol:water 99:1 v/v at about 60° C. (initial concentration: 150 mg/mL). Polish filtration was carried out (0.2 μm PTFE filter). The solution was transferred to a 250 mL vessel at 60° C. and stirred at 50° C. (solution temperature) and 300 rpm for about 5 min. The solution was seeded with about 100 mg (1 wt. %) of Compound I dihydrochloride Form 2, isolated from small-scale crystallization Experiments 12 and 13, from example 4 above. The seed dissolved rapidly. Anti-solvent addition of 10 mL of heptane (1 volume) was carried out at 2 vol/h (Heptane content of 13%). The solution was re-seeded with a further 100 mg (1 wt. %) of Form 2, isolated from small-scale crystallization Experiment 12. The seed persisted and a slurry formed. The slurry was stirred at 50° C. for 1 h and then anti-solvent addition of 131 mL of heptane at 1.5 vol/h was carried out, to reach 60% heptane. […] An additional 2 volumes of ethanol:water 99:1 v/v was added at the beginning of the ASA to mobilize the slurry. Once ASA was complete, the slurry was cooled to 5° C. at 0.1° C./min. The experiment was sub-sampled after about 2 h at 5° C. The slurry was thick but mixing. After 3.5 h at 5° C., an additional 3.6 mL of water was added to increase the water content to 2% (ethanol:water:heptane ratio of 39:2:59 v/v/v). The experiment was sub-sampled again after 2 h at 5° C. with additional water. After a total of 10 h at 5° C., solids were isolated by filtration and washed with 2 volumes of cold (5° C.) ethanol:heptane 40:60 v/v. The solids were filtered and dried under vacuum at ambient temperature (about 21° C.) for 14.5 h, then analyzed by XRPD."}, "[2]": {"assay": "Thermodynamic solubility study (HPLC of mother liquors)", "assay_type": "physicochemical", "conditions": "thermodynamic from solid", "experimental": "To obtain accurate solubility and residual solid form data for amorphous Compound I dihydrochloride, thermodynamic solubility studies were carried out on amorphous input material in selected solvent systems at 50° C. and 5° C. (Table 6)."}},
  "note": "Structures can show the parent of a compound that is named as a salt.",
  "data": [
    {"compound": "CC[C@H]1CN2CCc3cc(OC)c(OC)cc3[C@@H]2C[C@@H]1C[C@H]1NCCc2cc(OC)c(OC)cc21", "note": "[Amorphous Compound I dihydrochloride]", "values": [
      {"measurement": "Solid form by XRPD after storage", "setting": "[1]", "result": "amorphous Compound I dihydrochloride was obtained"},
      {"measurement": "solubility thermodynamic at 23 h", "setting": "[2]; organic solvent or mixture, 2-propanol:heptane 70:30 v/v, 5° C.", "result": "< 10", "unit": "mg/mL"},
      {"measurement": "solubility thermodynamic at 23 h", "setting": "[2]; organic solvent or mixture, 2-propanol:heptane 70:30 v/v, 50° C.", "result": "~20", "unit": "mg/mL"},
      {"measurement": "solubility thermodynamic at 23 h", "setting": "[2]; organic solvent or mixture, 2-propanol:heptane 90:10 v/v, 5° C.", "result": "10 to 40", "unit": "mg/mL"},
      {"measurement": "solubility thermodynamic at 23 h", "setting": "[2]; organic solvent or mixture, 2-propanol:heptane 90:10 v/v, 50° C.", "result": "40 to 115", "unit": "mg/mL"},
      {"measurement": "solubility thermodynamic at 23 h", "setting": "[2]; organic solvent or mixture, 2-propanol:water 95:5 v/v, 5° C.", "result": "10 to 40", "unit": "mg/mL"},
      {"measurement": "solubility thermodynamic at 23 h", "setting": "[2]; organic solvent or mixture, 2-propanol:water 95:5 v/v, 50° C.", "result": "40 to 115", "unit": "mg/mL"},
      {"measurement": "solubility thermodynamic at 23 h", "setting": "[2]; organic solvent or mixture, 2-propanol:water 99:1 v/v, 5° C.", "result": "10 to 40", "unit": "mg/mL"},
      {"measurement": "solubility thermodynamic at 23 h", "setting": "[2]; organic solvent or mixture, 2-propanol:water 99:1 v/v, 50° C.", "result": "40 to 115", "unit": "mg/mL"},
      {"measurement": "solubility thermodynamic at 23 h", "setting": "[2]; organic solvent or mixture, 2-propanol, 5° C.", "result": "10 to 40", "unit": "mg/mL"},
      {"measurement": "solubility thermodynamic at 23 h", "setting": "[2]; organic solvent or mixture, 2-propanol, 50° C., experiment remained unsaturated", "result": "> 215", "unit": "mg/mL"},
      {"measurement": "solubility thermodynamic at 23 h", "setting": "[2]; organic solvent or mixture, acetone:water 60:40 v/v, 5° C., experiment remained unsaturated", "result": "> 125", "unit": "mg/mL"},
      {"measurement": "solubility thermodynamic at 23 h", "setting": "[2]; organic solvent or mixture, acetone:water 60:40 v/v, 50° C., experiment remained unsaturated", "result": "> 215", "unit": "mg/mL"},
      {"measurement": "solubility thermodynamic at 23 h", "setting": "[2]; organic solvent or mixture, acetone:water 70:30 v/v, 5° C., experiment remained unsaturated", "result": "> 125", "unit": "mg/mL"},
      {"measurement": "solubility thermodynamic at 23 h", "setting": "[2]; organic solvent or mixture, acetone:water 70:30 v/v, 50° C., experiment remained unsaturated", "result": "> 215", "unit": "mg/mL"},
      {"measurement": "solubility thermodynamic at 23 h", "setting": "[2]; organic solvent or mixture, acetone:water 90:10 v/v, 5° C.", "result": "10 to 40", "unit": "mg/mL"},
      {"measurement": "solubility thermodynamic at 23 h", "setting": "[2]; organic solvent or mixture, acetone:water 90:10 v/v, 50° C.", "result": "40 to 115", "unit": "mg/mL"},
      {"measurement": "solubility thermodynamic at 23 h", "setting": "[2]; organic solvent or mixture, ethanol:heptane 60:40 v/v, 5° C.", "result": "< 10", "unit": "mg/mL"},
      {"measurement": "solubility thermodynamic at 23 h", "setting": "[2]; organic solvent or mixture, ethanol:heptane 60:40 v/v, 50° C.", "result": "40 to 115", "unit": "mg/mL"},
      {"measurement": "solubility thermodynamic at 23 h", "setting": "[2]; organic solvent or mixture, ethanol:heptane 80:20 v/v, 5° C.", "result": "10 to 40", "unit": "mg/mL"},
      {"measurement": "solubility thermodynamic at 23 h", "setting": "[2]; organic solvent or mixture, ethanol:heptane 80:20 v/v, 50° C., experiment remained unsaturated", "result": "> 215", "unit": "mg/mL"},
      {"measurement": "solubility thermodynamic at 23 h", "setting": "[2]; organic solvent or mixture, ethanol, 5° C.", "result": "10 to 40", "unit": "mg/mL"},
      {"measurement": "solubility thermodynamic at 23 h", "setting": "[2]; organic solvent or mixture, ethanol, 50° C., experiment remained unsaturated", "result": "> 215", "unit": "mg/mL"},
      {"measurement": "solubility thermodynamic at 23 h", "setting": "[2]; water, 5° C.", "result": 65, "unit": "mg/mL"},
      {"measurement": "solubility thermodynamic at 23 h", "setting": "[2]; water, 50° C., experiment remained unsaturated", "result": "> 215", "unit": "mg/mL"}
    ]}
  ]
}
